Values quoted from earlier work as cited in US7998959B2, “Modulators of 11-β hydroxyl steroid dehydrogenase type 1, pharmaceutical compositions thereof, and methods of using the same” (Incyte Corporation, priority 2006, dated 2011).

What was measured:
[1] = tested on: pancreatic islet cells of ob/ob mice
healthy volunteers = conditions: after seven days of treatment
[2] = tested on: primary hippocampal cells

CC1(C)[C@@H](OC(=O)CCC(=O)O)CC[C@]2(C)[C@H]3C(=O)C=C4[C@@H]5C[C@@](C)(C(=O)O)CC[C@]5(C)CC[C@@]4(C)[C@]3(C)CC[C@@H]12 [carbenoxolone]
glucose-stimulated insulin release [1]: improves glucose-stimulated insulin release | IOP reduced (healthy volunteers): 18% | negative effects of glucocorticoids on bone nodule formation (bone nodule formation): attenuate the negative effects of glucocorticoids on bone nodule formation | protection from glucocorticoid-mediated exacerbation of excitatory amino acid neurotoxicity [2]: protects the cells from glucocorticoid-mediated exacerbation of excitatory amino acid neurotoxicity
